We go through eight compounds from ChEMBL document CHEMBL5614450, “SAR Study of 4,8-Disubstituted Pyrimido[5,4-d]pyrimidines Exhibiting Antitrypanosomal and Antileishmanial Activity” (ACS Med Chem Lett, 2024).

The test system of one series is Trypanosoma brucei. Briefly: Anti-trypanosomal activity against trypomastigote blood stage of Trypanosoma brucei Lister 427 assessed as inhibition of parasite growth incubated for 72 hrs by resazurin-dye based assay. It is filed as functional, organism-based. The note with it: Lister 427, 72 h. A general note: Alamar Blue is a resazurin reagent that responds to reducing activity.

The nature of series [1]: Cytotoxicity against human THP-1 cells assessed as reduction in cell viability incubated for 72 hrs by MTT assay. It is filed as toxicity, cell-based. On the technique in general: Formazan colour is commonly taken as a measure of viable cells.
Series [2] is described as follows: Selectivity index, ratio of CC50 for cytotoxicity against human THP-1 cells to IC50 for anti-trypanosomal activity against trypomastigote blood stage of Trypanosoma brucei Lister 427. Type of series: toxicity, cell-based. To be noted: read-out: Ratio CC50/IC50.
Series [3] relates to Leishmania infantum. Description: Anti-leishmanial activity against promastigote stage of Leishmania infantum MHOM/MA/67/ITMAP-263 assessed as inhibition of parasite growth at 10 uM incubated for 72 hrs by resazurin-dye based assay. Type of series: functional.
Series [4] deals with Leishmania infantum. Briefly: Anti-leishmanial activity against promastigote stage of Leishmania infantum MHOM/MA/67/ITMAP-263 assessed as inhibition of parasite growth incubated for 72 hrs by resazurin-dye based assay. Type of series: functional, organism-based. The note with it: MHOM/MA/67/ITMAP-263, 72 h.
The subject of series [5] is Leishmania infantum. Description: Anti-leishmanial activity against luciferase expressing intracellular amastigote stage of Leishmania infantum MHOM/MA/67/ITMAP-263 infected in human THP-1 cells assessed as inhibition of parasite growth at 10 uM incubated for 72 hrs by Steady-Glo luciferase assay. It is filed as functional. The note with it: MHOM/MA/67/ITMAP-263, THP-1.

Series [6] has as its system Leishmania infantum. Briefly: Anti-leishmanial activity against luciferase expressing intracellular amastigote stage of Leishmania infantum MHOM/MA/67/ITMAP-263 infected in human THP-1 cells assessed as inhibition of parasite growth incubated for 72 hrs by Steady-Glo luciferase assay. It is filed as functional, organism-based. The note with it: MHOM/MA/67/ITMAP-263, THP-1, 72 h.

A short description of series [7]: Selectivity index, ratio of CC50 for cytotoxicity against human THP-1 cells to IC50 for anti-leishmanial activity against promastigote stage of Leishmania infantum MHOM/MA/67/ITMAP-263. To be noted: read-out: Ratio CC50/IC50. It is filed as toxicity, cell-based.
A short description of series [8]: Selectivity index, ratio of CC50 for cytotoxicity against human THP-1 cells to IC50 for anti-leishmanial activity against luciferase expressing intracellular amastigote stage of Leishmania infantum MHOM/MA/67/ITMAP-263 infected in human THP-1 cells. Type of series: toxicity, cell-based. The note with it: read-out: Ratio CC50/IC50.
Series [9] can be described thus: Cytotoxicity against human A549 cells assessed as reduction in cell viability at 10 uM incubated for 24 hrs by Cell-Titer Glo luminescence assay. Type of series: toxicity, cell-based. To be noted: read-out: INH.
The nature of series [10]: Cytotoxicity against human HEK293 cells assessed as reduction in cell viability at 10 uM incubated for 24 hrs by Cell-Titer Glo luminescence assay. It is filed as toxicity, cell-based. The note with it: read-out: INH.
The next series has as its target CYP3A4 (Homo sapiens, UniProt P08684). Description: Inhibition of human CYP3A4 expressed in insect cell microsomes at 10 uM preincubated for 20 mins followed by NADP+ and substrate addition and measured after 10 mins by fluorescence based analysis. To be noted: recombinant human CYP3A4 expressed in insect cell microsomes, time 30 min. Type of series: ADME, Microsome.

In a further series the target is hERG (KCNH2) (Homo sapiens, UniProt Q12809). Description: Displacement of tracer from hERG extracted from membrane at 10 uM incubated for 2 hrs by fluorescence polarization assay. Type of series: toxicity, cell membranes. To be noted: hERG membrane preparation, probe tracer (not named).
Sequence of hERG (KCNH2) (Q12809 whole entry): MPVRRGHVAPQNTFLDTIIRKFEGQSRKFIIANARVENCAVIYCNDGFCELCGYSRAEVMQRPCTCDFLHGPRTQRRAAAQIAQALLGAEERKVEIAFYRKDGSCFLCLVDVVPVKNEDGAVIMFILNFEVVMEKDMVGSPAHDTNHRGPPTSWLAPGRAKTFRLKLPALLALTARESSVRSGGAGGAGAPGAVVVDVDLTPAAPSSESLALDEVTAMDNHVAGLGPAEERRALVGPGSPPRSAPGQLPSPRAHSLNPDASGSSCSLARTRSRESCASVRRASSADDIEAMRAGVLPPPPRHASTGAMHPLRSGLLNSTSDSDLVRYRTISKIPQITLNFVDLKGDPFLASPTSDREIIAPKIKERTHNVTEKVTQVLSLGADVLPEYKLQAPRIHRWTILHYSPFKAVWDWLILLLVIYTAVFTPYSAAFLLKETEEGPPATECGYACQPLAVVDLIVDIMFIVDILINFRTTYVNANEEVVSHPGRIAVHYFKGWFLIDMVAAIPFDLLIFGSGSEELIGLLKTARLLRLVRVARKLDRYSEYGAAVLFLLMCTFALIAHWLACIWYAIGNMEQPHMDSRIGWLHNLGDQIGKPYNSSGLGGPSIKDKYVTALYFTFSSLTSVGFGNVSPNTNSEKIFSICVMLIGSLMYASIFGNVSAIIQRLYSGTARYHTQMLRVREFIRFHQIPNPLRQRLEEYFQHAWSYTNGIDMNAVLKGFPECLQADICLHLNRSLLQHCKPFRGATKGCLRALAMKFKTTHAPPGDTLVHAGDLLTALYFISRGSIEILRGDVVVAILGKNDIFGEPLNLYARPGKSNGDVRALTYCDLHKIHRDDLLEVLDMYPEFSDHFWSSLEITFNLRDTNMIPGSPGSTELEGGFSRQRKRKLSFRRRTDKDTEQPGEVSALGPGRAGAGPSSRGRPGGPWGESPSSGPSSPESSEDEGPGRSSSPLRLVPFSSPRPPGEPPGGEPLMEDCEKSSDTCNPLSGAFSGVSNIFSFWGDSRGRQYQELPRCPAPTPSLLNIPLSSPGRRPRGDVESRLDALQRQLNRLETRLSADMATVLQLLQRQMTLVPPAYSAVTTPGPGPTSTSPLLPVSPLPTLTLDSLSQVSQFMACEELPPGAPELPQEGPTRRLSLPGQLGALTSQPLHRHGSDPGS

Sequence of CYP3A4 (P08684 whole entry): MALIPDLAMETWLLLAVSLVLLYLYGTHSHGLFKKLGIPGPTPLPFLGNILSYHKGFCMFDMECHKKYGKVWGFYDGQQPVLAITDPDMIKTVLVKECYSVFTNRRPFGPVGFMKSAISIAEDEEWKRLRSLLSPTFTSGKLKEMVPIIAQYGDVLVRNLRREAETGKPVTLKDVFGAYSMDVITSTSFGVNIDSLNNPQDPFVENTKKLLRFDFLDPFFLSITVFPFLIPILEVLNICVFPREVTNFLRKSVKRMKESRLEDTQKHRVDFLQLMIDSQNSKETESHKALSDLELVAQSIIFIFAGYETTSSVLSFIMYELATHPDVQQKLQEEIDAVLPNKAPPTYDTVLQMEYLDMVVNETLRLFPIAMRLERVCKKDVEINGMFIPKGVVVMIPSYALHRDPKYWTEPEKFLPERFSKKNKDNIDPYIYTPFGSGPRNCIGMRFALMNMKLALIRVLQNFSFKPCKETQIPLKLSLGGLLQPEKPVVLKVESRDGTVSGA

As a reminder, the IC50 is the midpoint of a concentration-inhibition curve. As a reminder, the CC50 is the concentration giving 50% cytotoxicity. One may read the inhibition as the percentage by which the read-out fell short of the control. On to `COc1ccc(Nc2ncnc3c(N/N=C/c4ccc(OC)c(OC)c4)ncnc23)cc1`, for which the IC50 in the series on Trypanosoma brucei came out at 2440 nM; in the series on Leishmania infantum [4] it was 1930 nM; in the series with Leishmania infantum [6], 3000 nM. Moreover, the CC50 at 72 h in [1] is greater than 100000 nM. In addition, the selectivity ratio was greater than 41 in [2], greater than 52 in series [7] and greater than 33 in [8]. Besides, the inhibition at 10 µM in the series on Leishmania infantum [3] turned out to be 98%; in the series on Leishmania infantum [5], 85%. The cytotoxicity at 24 h, 10 µM stood at 23% in [9] and 12% in series [10]. The inhibition at 10 min, 10 µM at CYP3A4 came out at 0%. In addition, the inhibition at 2 h, 10 µM at hERG (KCNH2) worked out at 0%.

For `COc1ccc(Nc2ncnc3c(N/N=C/c4cc(O)c(O)c(O)c4)ncnc23)cc1`, the IC50 was 540 nM with Trypanosoma brucei, 200 nM in the series on Leishmania infantum [4] and greater than 20000 nM with Leishmania infantum [6]. Also, in [1], the CC50 at 72 h is greater than 100000 nM. Also, the values for the selectivity ratio in [2] and in series [7] were greater than 185 and greater than 502, respectively. Moreover, the inhibition at 10 µM in the series on Leishmania infantum [3] was 94%; in the series on Leishmania infantum [5], 41%. The cytotoxicity at 24 h, 10 µM was 12% in series [9] and 3% in series [10]. On CYP3A4, the inhibition at 10 min, 10 µM stood at 0%. Besides, at hERG (KCNH2), the inhibition at 2 h, 10 µM came to 48%.

For `COc1ccc(Nc2ncnc3c(N/N=C/c4ccc(O)c(O)c4)ncnc23)cc1`, the IC50 is 550 nM in the series with Trypanosoma brucei, 990 nM with Leishmania infantum [4] and 3130 nM with Leishmania infantum [6]. In series [1], the CC50 at 72 h is greater than 100000 nM. The selectivity ratio in series [2] was greater than 182; in series [7], greater than 101; in series [8] it was greater than 32. The inhibition at 10 µM is 98% in the series with Leishmania infantum [3] and 87% in the series with Leishmania infantum [5]. Besides, the cytotoxicity at 24 h, 10 µM amounted to 39% in series [9] and 18% in [10]. Besides, the inhibition at 10 min, 10 µM at CYP3A4 came out at 2%. For the same compound, the inhibition at 2 h, 10 µM on hERG (KCNH2) was found to be 36%.

Take `CCCCCCCCCCCCCCCCOP(=O)([O-])OCC[N+](C)(C)C` [MILTEFOSINE]: the inhibition at 10 µM came out at 97% with Leishmania infantum [3] and 99% in the series with Leishmania infantum [5]. In addition, the IC50 is 11900 nM in the series with Leishmania infantum [4] and 710 nM in the series with Leishmania infantum [6]. Further, the selectivity ratio in [7] amounted to 2.5; in [8], 42.

Consider `COc1cccc(Nc2ncnc3c(N/N=C/c4ccc(O)c(O)c4)ncnc23)c1`, for which the IC50 stood at 1280 nM in the series on Trypanosoma brucei, 1670 nM in the series on Leishmania infantum [4] and 8510 nM in the series with Leishmania infantum [6]. In addition, the CC50 at 72 h in series [1] is greater than 50000 nM. The results for the selectivity ratio in series [2], in series [7] and in series [8] were greater than 39, 30 and 6, respectively. The inhibition at 10 µM stood at 94% in the series with Leishmania infantum [3] and 62% in the series on Leishmania infantum [5]. In addition, the cytotoxicity at 24 h, 10 µM in series [9] is 22%; in series [10], 7%. Further, at CYP3A4, the inhibition at 10 min, 10 µM worked out at 2%. Also, at hERG (KCNH2), the inhibition at 2 h, 10 µM was 18%.

`COc1ccc(Nc2ncnc3c(NN)ncnc23)cc1`: the IC50 amounted to 710 nM with Trypanosoma brucei and 720 nM in the series on Leishmania infantum [4]. Further, the CC50 at 72 h in series [1] is greater than 50000 nM. Further, the selectivity ratio is greater than 71 in series [2] and 69 in [7]. Besides, the inhibition at 10 µM with Leishmania infantum [3] is 99%; with Leishmania infantum [5], less than 0%. The cytotoxicity at 24 h, 10 µM in series [9] is -14%; in series [10], -7%. In addition, on CYP3A4, the inhibition at 10 min, 10 µM was 12%. Further, at hERG (KCNH2), the inhibition at 2 h, 10 µM worked out at 7%.

`COc1cc(/C=N/Nc2ncnc3c(Nc4ccc(OC(F)(F)F)cc4)ncnc23)ccc1O`: the IC50 with Trypanosoma brucei amounted to 180 nM; in the series with Leishmania infantum [4], 8750 nM. Besides, the CC50 at 72 h in series [1] is greater than 10000 nM. Also, the values for the selectivity ratio in [2] and in [7] were greater than 54 and 1, respectively. The inhibition at 10 µM was 50% in the series on Leishmania infantum [3] and less than 0% with Leishmania infantum [5]. Further, the cytotoxicity at 24 h, 10 µM is 38% in series [9] and 19% in [10]. Besides, the inhibition at 10 min, 10 µM at CYP3A4 stood at 0%. The compound also registered an inhibition at 2 h, 10 µM at hERG (KCNH2) of 64%.

`COc1cccc(Nc2ncnc3c(N/N=C/c4ccc(OC)c(OC)c4)ncnc23)c1`: the IC50 was 1320 nM in the series with Trypanosoma brucei, 1440 nM with Leishmania infantum [4] and greater than 20000 nM with Leishmania infantum [6]. Besides, in [1], the CC50 at 72 h is greater than 50000 nM. Also, the selectivity ratio in series [2] was greater than 38; in series [7], greater than 35. The inhibition at 10 µM in the series on Leishmania infantum [3] was 98%; in the series with Leishmania infantum [5] it was 34%. Also, the figures for the cytotoxicity at 24 h, 10 µM in series [9] and in series [10] were 40% and 18%, respectively. Moreover, at CYP3A4, the inhibition at 10 min, 10 µM is 0%. Besides, the inhibition at 2 h, 10 µM on hERG (KCNH2) turned out to be 35%.
